Test results reported in the NIST ThermoML archive (doi:10.1021/je501178z).
Values joined by “and” are separate entries in the source; they are usually repeats but may differ in a detail not shown here. Equal entries are not always repeated.

Experiment: mn = molality of the nth substance listed, in mol/kg
Conditions: 101.3 kPa, Liquid; for viscosity: Capillary tube (Ostwald / Ubbelohde) method; for mass density: Vibrating tube method

CC(C)[C@H](N)C(=O)O [L-valine] + O
Conditions | mass density, m1 = 0.1 [kg/m3] | mass density, m1 = 0.2001 [kg/m3] | mass density, m1 = 0.3001 [kg/m3] | mass density, m1 = 0.4002 [kg/m3] | mass density, m1 = 0.5 [kg/m3] | viscosity, m1 = 0.1 [mPa·s] | viscosity, m1 = 0.2001 [mPa·s] | viscosity, m1 = 0.3001 [mPa·s] | viscosity, m1 = 0.4002 [mPa·s] | viscosity, m1 = 0.5 [mPa·s]
293.15 K | 1000.88 | 1003.51 | 1006.08 | 1008.6 | 1011.05 | 1.044 | 1.089 | 1.135 | 1.184 | 1.233
303.15 K | 998.29 | 1000.88 | 1003.41 | 1005.89 | 1008.31 | 0.829 | 0.862 | 0.896 | 0.929 | 0.965
313.15 K | 994.81 | 997.37 | 999.88 | 1002.33 | 1004.72 | 0.678 | 0.702 | 0.728 | 0.753 | 0.779
323.15 K | 990.6 | 993.11 | 995.57 | 997.98 | 1000.34 | 0.565 | 0.585 | 0.604 | 0.624 | 0.644

OC[C@@H](O)[C@@H](O)[C@H](O)[C@H](O)CO [D-mannitol] + O
Conditions | mass density, m1 = 0.2 [kg/m3] | mass density, m1 = 0.4 | mass density, m1 = 0.6 [kg/m3] | mass density, m1 = 0.8 [kg/m3] | mass density, m1 = 1 [kg/m3] | viscosity, m1 = 0.2 [mPa·s] | viscosity, m1 = 0.4 | viscosity, m1 = 0.6 [mPa·s] | viscosity, m1 = 0.8 [mPa·s] | viscosity, m1 = 1
293.15 K | 1010.52 | 1022.31 kg/m3 | 1033.43 | 1043.98 | 1054.13 | 1.104 | 1.221 mPa·s | 1.336 | 1.494 | 1.643 mPa·s
303.15 K | 1007.82 | 1019.39 kg/m3 | 1030.35 | 1040.88 | 1050.85 | 0.874 | 0.959 mPa·s | 1.044 | 1.151 | 1.262 mPa·s
313.15 K | 1004.26 | 1015.71 kg/m3 and 1015.74 kg/m3 | 1026.6 | 1036.92 | 1046.79 | 0.711 | 0.775 mPa·s and 0.776 mPa·s | 0.841 | 0.917 | 1.001 mPa·s and 1 mPa·s
323.15 K | 999.96 | 1011.28 kg/m3 | 1022.09 | 1032.28 | 1042.15 | 0.592 | 0.642 mPa·s | 0.693 | 0.752 | 0.814 mPa·s

C[C@H](N)C(=O)O [(S)-2-aminopropanoic acid] + O
Conditions | mass density, 293.15 K [kg/m3] | mass density, 303.15 K [kg/m3] | mass density, 313.15 K [kg/m3] | mass density, 323.15 K [kg/m3] | viscosity, 293.15 K [mPa·s] | viscosity, 303.15 K [mPa·s] | viscosity, 313.15 K [mPa·s] | viscosity, 323.15 K [mPa·s]
m1 = 0.1 | 1001.06 | 998.48 | 995.01 | 990.81 | 1.027 | 0.817 | 0.668 | 0.559
m1 = 0.2 | 1003.88 | 1001.27 | 997.76 | 993.55 | 1.053 | 0.837 | 0.684 | 0.571
m1 = 0.3 | 1006.66 | 1004.01 | 1000.47 | 996.24 | 1.079 | 0.856 | 0.7 | 0.584
m1 = 0.4002 | 1009.39 | 1006.71 | 1003.14 | 998.9 | 1.107 | 0.877 | 0.715 | 0.596
m1 = 0.5001 | 1012.06 | 1009.35 | 1005.76 | 1001.5 | 1.134 | 0.897 | 0.731 | 0.609
m1 = 0.6002 | 1014.69 | 1011.95 | 1008.33 | 1004.06 | 1.163 | 0.919 | 0.749 | 0.622
m1 = 0.6999 | 1017.27 | 1014.5 | 1010.86 | 1006.58 | 1.191 | 0.94 | 0.765 | 0.635

NCC(=O)O [2-aminoacetic acid] + O
Conditions | mass density, 293.15 K [kg/m3] | mass density, 303.15 K [kg/m3] | mass density, 313.15 K [kg/m3] | mass density, 323.15 K [kg/m3] | viscosity, 293.15 K [mPa·s] | viscosity, 303.15 K [mPa·s] | viscosity, 313.15 K [mPa·s] | viscosity, 323.15 K [mPa·s]
m1 = 0.1002 | 1001.41 | 998.8 | – | 991.11 | 1.015 | 0.809 | 0.663 | 0.555
m1 = 0.2 | 1004.57 | 1001.91 | – | 994.14 | 1.029 | 0.82 | 0.672 | 0.563
m1 = 0.3002 | 1007.7 | 1004.98 | 1001.42 | 997.14 | 1.042 | 0.831 | 0.681 | 0.571
m1 = 0.4001 | 1010.77 | 1008 | 1004.4 | 1000.09 | 1.057 | 0.842 | 0.691 | 0.579
m1 = 0.5001 | 1013.8 | 1010.98 | 1007.35 | 1003.01 | 1.072 | 0.855 | 0.701 | 0.587
m1 = 0.6 | 1016.78 | 1013.91 | 1010.25 | 1005.88 | 1.086 | 0.867 | 0.711 | 0.596
m1 = 0.6998 | 1019.71 | 1016.8 | 1013.11 | 1008.72 | 1.101 | 0.878 | 0.721 | 0.605

N=C(N)NCCC[C@H](N)C(=O)O [L-arginine] + O
Conditions | mass density, 293.15 K [kg/m3] | mass density, 303.15 K [kg/m3] | mass density, 313.15 K [kg/m3] | mass density, 323.15 K [kg/m3] | viscosity, 293.15 K [mPa·s] | viscosity, 303.15 K [mPa·s] | viscosity, 313.15 K [mPa·s] | viscosity, 323.15 K [mPa·s]
m1 = 0.1 | 1003.17 | 1000.55 | 997.05 | 992.84 | 1.054 | 0.838 | 0.685 | 0.572
m1 = 0.2 | 1008 | 1005.3 | 1001.75 | 997.5 | 1.108 | 0.879 | 0.717 | 0.598
m1 = 0.3001 | 1012.68 | 1009.91 | 1006.31 | 1002.03 | 1.167 | 0.923 | 0.751 | 0.625
m1 = 0.4 | 1017.21 | 1014.38 | 1010.73 | 1006.41 | 1.23 | 0.97 | 0.788 | 0.654
m1 = 0.5 | 1021.6 | 1018.71 | 1015.01 | 1010.67 | 1.298 | 1.021 | 0.826 | 0.684
m1 = 0.6 | 1025.86 | 1022.9 | 1019.15 | 1014.8 | 1.362 | 1.069 | 0.864 | 0.714
m1 = 0.7 | 1030 | 1026.97 | 1023.18 | 1018.82 | 1.435 | 1.124 | 0.905 | 0.747

C[C@@H](O)[C@H](N)C(=O)O [L-threonine] + O
Conditions | mass density, 293.15 K [kg/m3] | mass density, 303.15 K [kg/m3] | mass density, 313.15 K [kg/m3] | mass density, 323.15 K [kg/m3] | viscosity, 293.15 K [mPa·s] | viscosity, 303.15 K [mPa·s] | viscosity, 313.15 K [mPa·s] | viscosity, 323.15 K [mPa·s]
m1 = 0.0999 | 1002.41 | 999.81 | 996.32 | 992.11 | 1.035 | 0.823 | 0.673 | 0.562
m1 = 0.1999 | 1006.56 | 1003.9 | 1000.37 | 996.12 | 1.072 | 0.849 | 0.693 | 0.579
m1 = 0.2999 | 1010.63 | 1007.92 | 1004.34 | 1000.05 | 1.107 | 0.876 | 0.714 | 0.595
m1 = 0.4002 | 1014.64 | 1011.87 | 1008.25 | 1003.93 | 1.145 | 0.905 | 0.736 | 0.613
m1 = 0.5 | 1018.55 | 1015.73 | 1012.07 | 1007.71 | 1.184 | 0.934 | 0.759 | 0.63
m1 = 0.6 | 1022.4 | 1019.52 | 1015.83 | 1011.44 | 1.225 | 0.965 | 0.782 | 0.649
m1 = 0.6998 | 1026.16 | 1023.24 | 1019.52 | 1015.1 | 1.269 | 0.996 | 0.806 | 0.667
